Marks after values point to notes of the source that are not given here.
Legend:
[1] = experimental values from the ClogP database ref 119; cited from earlier work
[2] = marked values, listed in Table 1; cited from earlier work
[3] = DMPC bilayer; listed in Table 1; cited from earlier work
[4] = Fraction of total tissue amount present in the bilayer, calculated from Pb/w; conditions: bilayer volume 2.5% of tissue volume, no protein binding
[5] = test system: rhodopsin; conditions: 1-palmitoyl-2-oleoyl-PC vesicles ref 132; cited from earlier work

Compound | logP O/W [1] | further results
Clc1ccccc1Cl [compound 1, 1,2-dichlorobenzene] | 3.43 | –
Clc1cc(Cl)cc(Cl)c1 [compound 2, 1,3,5-trichlorobenzene] | 4.19 | –
Clc1cccc(Cl)c1 [compound 3, 1,3-dichlorobenzene] | 3.53 | –
Cc1cccc(C)c1[N+](=O)[O-] [compound 4, 1,3-dimethyl-2-nitrobenzene] | 2.95 | –
Cc1ccc(C)cc1 [compound 6, 1,4-dimethylbenzene] | – | log P C16/DAcPC [2]: 2.59 ^b; log P bilayer/water exptl [3]: 2.98
BrCCc1ccccc1 [compound 7, 1-bromo-2-phenylethane] | 3.09 | fraction of the total amount in the tissue present in the bilayer [4]: 93%
BrCCCc1ccccc1 [compound 8, 1-bromo-3-phenylpropane] | 3.72 | –
Clc1ccc(Br)cc1 [compound 9, 1-bromo-4-chlorobenzene] | 3.54 | –
Brc1cccc2ccccc12 [compound 10, 1-bromonaphthalene] | 4.06 | –
CCCCCCO [compound 11, 1-hexanol] | – | fraction of the total amount in the tissue present in the bilayer [4]: 68%; effect on photolysis of rhodopsin [5]: negligible
Clc1ccc(-c2ccc(Cl)c(Cl)c2Cl)c(Cl)c1Cl [compound 14, 2,2′,3,3′,4,4′-hexachlorobiphenyl] | 7.32 | –
Clc1cccc(-c2ccc(Cl)c(Cl)c2Cl)c1Cl [compound 16, 2,2′,3,3′,4-pentachlorobiphenyl] | 6.30 | –
Clc1ccc(Cl)c(-c2c(Cl)ccc(Cl)c2Cl)c1Cl [compound 17, 2,2′,3,3′,6,6′-hexachlorobiphenyl] | 7.12 | –
Clc1cccc(-c2cccc(Cl)c2Cl)c1Cl [compound 18, 2,2′,3,3′-tetrachlorobiphenyl] | 6.18 | –
Clc1ccc(Cl)c(-c2cccc(Cl)c2Cl)c1 [compound 21, 2,2′,3,5′-tetrachlorobiphenyl] | 5.81 | –
Clc1ccccc1-c1cccc(Cl)c1Cl [compound 23, 2,2′,3-trichlorobiphenyl] | 5.60 | –
Clc1cc(Cl)c(-c2c(Cl)cc(Cl)cc2Cl)c(Cl)c1 [compound 24, 2,2′,4,4′,6,6′-hexachlorobiphenyl] | 7.29 | –
Clc1ccc(Cl)c(-c2cc(Cl)c(Cl)cc2Cl)c1 [compound 25, 2,2′,4,5,5′-pentachlorobiphenyl] | 6.85 | –
Clc1cc(Cl)c(-c2ccccc2Cl)cc1Cl [compound 26, 2,2′,4,5-tetrachlorobiphenyl] | 6.27 | –
Clc1ccc(-c2cc(Cl)ccc2Cl)c(Cl)c1 [compound 27, 2,2′,4,5′-tetrachlorobiphenyl] | 6.36 | –
Clc1ccc(-c2ccccc2Cl)c(Cl)c1 [compound 28, 2,2′,4-trichlorobiphenyl] | 5.76 | –
Clc1ccc(Cl)c(-c2cc(Cl)ccc2Cl)c1 [compound 29, 2,2′,5,5′-tetrachlorobiphenyl] | 6.26 | –

Compound | logP O/W [1] | further results
Clc1ccccc1-c1c(Cl)cccc1Cl [compound 31, 2,2′,6-trichlorobiphenyl] | 5.47 | –
Clc1ccccc1-c1ccccc1Cl [compound 33, 2,2′-dichlorobiphenyl] | 4.97 | –
Clc1c(Cl)c(Cl)c(-c2ccccc2)c(Cl)c1Cl [compound 35, 2,3,4,5,6-pentachlorobiphenyl] | 6.74 | –
Clc1cc(-c2ccccc2)c(Cl)c(Cl)c1Cl [compound 36, 2,3,4,5-tetrachlorobiphenyl] | 6.41 | –
Clc1cccc(-c2cc(Cl)ccc2Cl)c1 [compound 39, 2,3′,5-trichlorobiphenyl] | 5.76 | –
Clc1ccc(Cl)c(-c2ccccc2)c1Cl [compound 40, 2,3,6-trichlorobiphenyl] | 5.67 | –
Clc1cccc(-c2c(Cl)cccc2Cl)c1 [compound 41, 2,3′,6-trichlorobiphenyl] | 5.67 | –
Nc1cc2ccccc2cc1N [compound 42, 2,3-diaminonaphthalene] | 1.54 | –
Clc1cccc(-c2ccccc2)c1Cl [compound 43, 2,3-dichlorobiphenyl] | 4.99 | –
Clc1cccc(-c2ccccc2Cl)c1 [compound 44, 2,3′-dichlorobiphenyl] | 5.02 | –
Nc1cc(Cl)c(Cl)cc1Cl [compound 45, 2,4,5-trichloroaniline] | 3.69 | –
Clc1cc(Cl)c(-c2ccccc2)cc1Cl [compound 46, 2,4,5-trichlorobiphenyl] | 5.90 | –
Clc1cc(Cl)c(-c2ccccc2)c(Cl)c1 [compound 47, 2,4,6-trichlorobiphenyl] | 5.71 | –
Clc1ccc(-c2c(Cl)cccc2Cl)cc1 [compound 48, 2,4′,6-trichlorobiphenyl] | 5.75 | –
Clc1ccc(-c2ccccc2)c(Cl)c1 [compound 49, 2,4-dichlorobiphenyl] | 5.30 | –
Clc1ccc(-c2ccccc2Cl)cc1 [compound 50, 2,4′-dichlorobiphenyl] | 5.10 | –
Clc1ccc(Cl)c(-c2ccccc2)c1 [compound 51, 2,5-dichlorobiphenyl] | 5.16 | –
Cc1ccc(C)c(O)c1 [compound 52, 2,5-dimethylphenol] | 2.33 | –
Clc1cccc(Cl)c1-c1ccccc1 [compound 53, 2,6-dichlorobiphenyl] | 4.98 | –
COc1cccc(OC)c1O [compound 54, 2,6-dimethoxyphenol] | 1.15 | –
Cc1ccccc1Br [compound 57, 2-bromotoluene] | 3.50 | –
Clc1ccccc1-c1ccccc1 [compound 58, 2-chlorobiphenyl] | 4.53 | –

Compound | logP O/W [1] | further results
Cc1ccc2cc3ccccc3cc2c1 [compound 60, 2-methylanthracene] | 5.00 | –
Nc1cccc(Br)c1 [compound 63, 3-bromoaniline] | 2.10 | –
CC(=O)c1ccc(N)cc1 [compound 68, 4-aminoacetophenone] | 0.86 | –
Nc1ccc(Br)cc1 [compound 71, 4-bromoaniline] | 2.11 | –
Cc1cc(O)ccc1Cl [compound 74, 4-chloro-3-methylphenol] | 3.10 | fraction of the total amount in the tissue present in the bilayer [4]: 97%
O=C(c1ccccc1)c1ccc(Cl)cc1 [compound 75, 4-chlorobenzophenone] | 3.79 | –
CN(C)c1ccc(C=O)cc1 [compound 77, 4-dimethylamino-benzaldehyde] | 2.01 | –
Cc1ccc([N+](=O)[O-])cc1 [compound 79, 4-nitrotoluene] | 2.37 | –
CCCCCc1ccc(O)cc1 [compound 80, 4-n-pentylphenol] | 4.24 | –
OCc1c2ccccc2cc2ccccc12 [compound 82, 9-anthracenemethanol] | – | fraction of the total amount in the tissue present in the bilayer [4]: 99%; log P C16/DAcPC [2]: –0.42 ^b; log P bilayer/water exptl [3]: 3.50
OCc1ccccc1 [compound 89, benzylalcohol] | – | log P bilayer/water exptl [3]: 2.03
CC(C)(c1ccc(O)cc1)c1ccc(O)cc1 [compound 91, bisphenol A] | – | log P C16/DAcPC [2]: –2.70 ^b; log P bilayer/water exptl [3]: 2.95
Clc1ccccc1 [compound 92, chlorobenzene] | 2.89 | –
CCO [compound 94, ethanol] | – | effect on photolysis of rhodopsin [5]: promoting effect
CCOC(=O)c1cccnc1 [compound 95, ethylnicotinate] | 1.32 | –
CCCc1ccccc1 [compound 101, n-propylbenzene] | – | log P C16/DAcPC [2]: 2.98 ^b; log P bilayer/water exptl [3]: 3.29
c1ccc2c(c1)ccc1ccccc12 [compound 104, phenanthrene] | 4.46 | –
c1ccc2[nH]ccc2c1 [compound 111, indole] | – | fraction of the total amount in the tissue present in the bilayer [4]: 81%
CCCCO [compound 113, 1-butanol] | – | effect on photolysis of rhodopsin [5]: promoting effect
CCCCCO [compound 114, 1-pentanol] | – | effect on photolysis of rhodopsin [5]: promoting effect
CCCCCCCO [compound 115] | – | effect on photolysis of rhodopsin [5]: inhibitory effect
CCCCCCCCO [compound 116] | – | effect on photolysis of rhodopsin [5]: inhibitory effect

— publication PMC4186683 (Molecular Pharmaceutics, 2014)
